Series [1] in a line: Excretion and mass balance in urine and feces. It counts as in vivo, human. To be noted: single oral administration. The text has this:
Six healthy male volunteers, 25–45 years of age, with a mean body weight of 83.3 kg (range 64.5–94.4) and a mean body mass index of 26.9 kg/m^2 (range 20.2–29.9) participated in the study. […] The subject release criterion was defined as follows: the combined urine and fecal radioactivity excretion for two consecutive days should fall below 1% of the dose administered.
Detailed procedures on sample collection, storage, and shipment are described in Online Resource 1. […] Urine and feces collected from each subject were pooled at predose and every 24 h thereafter. Fecal homogenates were prepared by adding water (four times the feces weight) and homogenizing.
TRA analysis was carried out at ABC Laboratories. The radioactivity in plasma (duplicate per time point) and urine samples (triplicate per time point) was quantitated by direct counting in a Beckman LS6000SC or LS6500 liquid scintillation counter (PerkinElmer Life and Analytical Sciences, Boston, MA, USA). Whole blood (duplicate per time point) and fecal homogenate (triplicate per time point) samples were oxidized, and the resultant ^14CO2 was trapped in Carbosorb (Calgon Carbon Corporation, Pittsburgh, PA, USA) in combination with Permafluor, followed by liquid scintillation counting to determine the radioactivity. Individual samples were counted for 5 min for whole blood and fecal matrices, and 10 min for plasma and urine matrices. Predose blood, plasma, urine, and feces samples served as respective control samples to determine and subtract the background radioactivity in the analysis.
All urine voided was collected and stored in containers at 5±3 °C until the collection interval was completed. Subjects voided in the morning prior to study drug administration.
Multiple collections of urine during each collection interval from each individual subject were pooled. The urine samples from each collection interval were well mixed, accurately weighed, and assessed for its pH. A 100 ml sample from each collection interval from each subject was aliquoted into a separately labeled container to be sent to ABC Laboratories for radioactivity analysis. An approximately 10 ml sample from each collection interval from each subject on day 8 and each day thereafter was used for TRA analysis at Celerion (Lincoln, NE). All urine samples were kept frozen at −80 ± 15 °C.
Stool collections began approximately 24 h prior to drug administration until the end of the postdose sampling period. The 24 h predose samples were used as control samples for the radioactivity analysis and metabolite profiling. Feces were collected daily (24 h collection periods) until subjects were discharged from the clinical research unit.
All fecal samples were collected in polypropylene containers; toilet paper was collected separately. The weight of each sample was recorded. Multiple collections of feces during each collection interval from each individual subject were pooled. The feces samples were thoroughly homogenized with water (4X the weight of the feces). A 100 g sample was aliquoted into a separately labeled container to be sent to ABC Laboratories for radioactivity analysis. An approximately 10 g sample from each collection interval from each subject on day 8 and each day thereafter was used for TRA analysis at Celerion. All fecal homogenate samples were kept frozen at −80 ± 15 °C.

Series [2] can be described thus: Metabolite characterization by LC/MS/MS in human plasma, urine, and feces. To be noted: human plasma, urine, feces; LC/MS/MS. On the procedure: The remaining eluate stream of 0.16 mL/min from the HPLC runs was diverted to the inlet of the mass spectrometer. The samples were analyzed using a heated electrospray ionization probe. Full-scan positive ion MS data were collected using Finnigan Exactive (MS^1) or Q-Exactive (MS^1 and MS^2) mass spectrometers (Thermo Fisher Scientific Inc.) Exact conditions are described in the Online Resource 3.
Finnigan Exactive or Q-Exactive mass spectrometers (Thermo Fisher Scientific Inc., San Jose, CA) were used to collect full scan MS^1 and MS^2 data.

Series [3] is described as follows: Metabolite profiling of urine (HPLC-radiochromatography). Type of series: in vivo, human. To be noted: 0–72 h pool. On the procedure: Predose and 0–72-h urine samples (grand pool of all six subjects) were prepared. Urine samples (5 mL) were centrifuged, the supernatant was transferred to a 15-mL polypropylene tube and placed on ice; the residues were extracted with 1 mL of methanol and the methanol extracts were added to the supernatants. The combined extracts were evaporated under nitrogen and reconstituted in 0.2 mL of methanol. A 0.010-mL aliquot of the reconstituted solution was removed for determination of radioactivity, and the remainder was transferred to HPLC vials and stored at −80 °C.
A Finnigan Surveyor HPLC system (Thermo Fisher Scientific Inc., San Jose, CA, USA), consisting of an LC pump plus an autosampler and a UV–Vis plus detector, was used mostly for profiling (except the post-24-h plasma samples, which were analyzed using a Dionex HPLC system). A Phenomenex® Gemini® C18, 5-μm, 3.0 × 100-mm column (Phenomenex Inc., Torrance, CA, USA) was used along with a C-12 guard column (4 × 2 mm). LC conditions were as follows: solvent A was 10 mM ammonium bicarbonate in water (pH 10.0) and solvent B was 100% methanol and the flow rate was 0.8 mL/min. The following gradient was employed (B%): 0–5 min (20%), 32 min (42%), 33 min (60%), 55 min (70%), 56–60 min (95%), and 62–70 min (20%).
Reconstituted solvent extracts (0.050–0.10 mL) of plasma, urine, or feces were injected onto the HPLC column. The post-column eluate was split after UV detection into two streams (0.64 and 0.16 mL/min). The 0.64-mL stream was diverted to a fraction collector (Gilson FX 204; Gilson Medical Electronics, Middleton, WI, USA) to be collected in 96-well plates at 0.16 min/well (ScintiPlates; PerkinElmer Life Sciences, Shelton, CT, USA), and the 0.16-mL stream was directed to the mass spectrometer. The solvent in the 96-well plates was removed at 40 °C using a Genevac evaporator (Genevac, Inc., Stone Ridge, NY, USA).
The radioactivity counts per minute (CPM) in each well was determined using a MicroBeta scintillation counter (PerkinElmer Life and Analytical Sciences). The resulting CPM vs. time data were processed using Excel (Microsoft Corporation, Seattle, WA, USA). The CPM in each well was background-subtracted (using the average CPM values of the blank region of the HPLC run). Radiochromatographic profiles were obtained by plotting the resulting net CPM values against time after injection. Radioactive peaks in the chromatographic profiles were identified, and the radioactivity in each peak was summed and reported as a percentage of TRA in the HPLC run.

This is an account of results in publication PMC5344956 (Cancer Chemotherapy and Pharmacology, 2017).

Turning to `Cc1ccc(C(=O)Nc2ccc(CN3CCN(C)CC3)c(C(F)(F)F)c2)cc1C#Cc1cnc2cccnn12.Cl` [Ponatinib, 3-(imidazo[1,2-b]pyridazin-3-ylethynyl)-4-methyl-N-(4-((4-methylpiperazin-1-yl)methyl)-3-(trifluoromethyl)phenyl)benzamide hydrochloride], in series [1], the “elimination pathway N-demethylation, share of dose” value was determined as 8.3%; the “elimination pathway hydroxylation, share of dose” value came out at 18.0%; the “elimination pathway methylation, share of dose” value was 8.4%. Besides, the “elimination pathway amide bond hydrolysis, share of dose” value in series [1] (estimated from 81% of urinary TRA and 5.4% of dose in urine) is reported as 4.4%. Also, the “Matrix (in which the metabolite was found)” value in series [2] is on record as “P, U, F”. The “% of total radioactive dose” value in series [3] was less than 0.05%. For the same compound, in series [3] (% of urinary TRA), the “% Distribution in matrix” value is recorded as “Trace levels”.
